Calls of active or inactive are those of the source. The rule behind the calls is not given here.
Legend:
[1] = tested on: T-cell; assay: Immunomodulatory activity in concanavalin A stimulated BALB/c mouse T-lymphocyte co-cultured with mouse CT26 cells overexpressing PD-L1 assessed as increase in proportion of CD3 positive CD69 positive T cells at 80 nM incubated for 48 hrs by flow cytometry (reference value: 41.22%); type: functional
[2] = Metabolic stability in human liver microsomes assessed as half life; type: ADME, Microsome
[3] = tested on: T-cell; assay: Immunomodulatory activity in concanavalin A stimulated BALB/c mouse T-lymphocyte co-cultured with mouse CT26 cells assessed as T cell proliferation at 20 nM incubated for 48 hrs by flow cytometry (reference value: 64.08 +/- 0.91%); type: functional
[4] = tested on: T-cell; assay: Immunomodulatory activity in concanavalin A stimulated BALB/c mouse T-lymphocyte co-cultured with mouse CT26 cells overexpressing PD-L1 assessed as increase in proportion of CD3 positive CD8 positive T cells at 80 nM incubated for 48 hrs by flow cytometry (reference value: 14.38%); type: functional
[5] = tested on: T-cell; assay: Immunomodulatory activity in concanavalin A stimulated BALB/c mouse T-lymphocyte co-cultured with mouse CT26 cells assessed as increase in T cell proliferation at 5 to 80 nM incubated for 48 hrs by flow cytometry; type: functional, cell-based; settings: dose 5-80 nM
[6] = molecular target: Programmed cell death protein 1/Programmed cell death 1 ligand 1 (Homo sapiens, UniProt Q15116+Q9NZQ7); assay: Inhibition of PD-1/PD-L1 (unknown origin) protein-protein interaction incubated for 105 mins by HTRF assay; type: protein-complex assay
[7] = tested on: T-cell; assay: Immunomodulatory activity in concanavalin A stimulated BALB/c mouse T-lymphocyte co-cultured with mouse CT26 cells overexpressing PD-L1 assessed as increase in proportion of CD3 positive CD69 positive T cells at 20 nM incubated for 48 hrs by flow cytometry (reference value: 39.97%); type: functional
[8] = tested on: T-cell; assay: Immunomodulatory activity in concanavalin A stimulated BALB/c mouse T-lymphocyte co-cultured with mouse CT26 cells overexpressing PD-L1 assessed as increase in proportion of CD3 positive CD8 positive T cells at 20 nM incubated for 48 hrs by flow cytometry (reference value: 15.01%); type: functional
[9] = tested on: T-cell; assay: Immunomodulatory activity in concanavalin A stimulated BALB/c mouse T-lymphocyte co-cultured with mouse CT26 cells overexpressing PD-L1 assessed as T cell proliferation at 20 nM incubated for 48 hrs by flow cytometry (reference value: 58.47 +/- 2.07%); type: functional
[10] = tested on: T-cell; assay: Immunomodulatory activity in concanavalin A stimulated BALB/c mouse T-lymphocyte co-cultured with mouse CT26 cells overexpressing PD-L1 assessed as increase in T cell proliferation at 5 to 80 nM incubated for 48 hrs by flow cytometry; type: functional, cell-based; settings: dose 5-80 nM
[11] = Toxicity in C57 mouse implanted with mouse Lewis lung carcinoma cell line overexpressing PD-L1 assessed as effect on liver viscera index at 20 mg/kg,ip administrated once every three days for 19 days; type: organism-based; settings: in vivo, 456 h, time 19 day
[12] = Toxicity in C57 mouse implanted with mouse Lewis lung carcinoma cell line overexpressing PD-L1 assessed as effect on kidney viscera index at 20 mg/kg,ip administrated once every three days for 19 days; type: organism-based; settings: in vivo, 456 h, time 19 day
[13] = Toxicity in C57 mouse implanted with mouse Lewis lung carcinoma cell line overexpressing PD-L1 assessed as effect on lung viscera index at 20 mg/kg,ip administrated once every three days for 19 days; type: organism-based; settings: in vivo, 456 h, time 19 day
[14] = Toxicity in C57 mouse implanted with mouse Lewis lung carcinoma cell line overexpressing PD-L1 assessed as effect on spleen viscera index at 20 mg/kg,ip administrated once every three days for 19 days; type: organism-based; settings: in vivo, 456 h, time 19 day
[15] = Antitumor activity against mouse Lewis lung carcinoma cell line overexpressing PD-L1 implanted in C57 mouse model assessed as increase in CD8 positive GzmB positive T cells in tumor at 20 mg/kg,ip administrated once every three days for 19 days by flow cytometry analysis (reference value: 9.11%); type: functional; settings: time 19 day
[16] = Toxicity in C57 mouse implanted with mouse Lewis lung carcinoma cell line overexpressing PD-L1 assessed as effect on heart viscera index at 20 mg/kg,ip administrated once every three days for 19 days; type: organism-based; settings: in vivo, 456 h, time 19 day
[17] = Metabolic stability in human liver microsomes assessed as intrinsic clearance; type: ADME, Microsome; settings: read-out: CLH
[18] = Metabolic stability in rat liver microsomes assessed as intrinsic clearance; type: ADME, Microsome; settings: read-out: CLH
[19] = Antitumor activity against mouse Lewis lung carcinoma cell line overexpressing PD-L1 implanted in C57 mouse model assessed as tumor growth inhibition at 20 mg/kg,ip administrated once every three days for 19 days; type: functional; settings: 456 h, time 19 day, read-out: TGI
[20] = (§1) Antitumor activity against mouse Lewis lung carcinoma cell line overexpressing PD-L1 implanted in C57 mouse model assessed as increase in infiltration of CD3 positive CD4 positive T cells in tumor by measuring late apoptotic cells at 20 mg/kg,ip administrated once every three days for 19 days by flow cytometry analysis (reference value: 12.07%); type: functional; settings: time 19 day
[21] = as §1, with “necrotic” for “late apoptotic”, “1.72%)” for “12.07%)”; type: functional; settings: time 19 day
[22] = tested on: Lewis lung carcinoma; assay: Cytotoxicity against mouse Lewis lung carcinoma cell line assessed as cell growth inhibition at 0.25 to 4096 nM incubated for 48 hrs by MTT assay; type: functional, cell-based; settings: dose 0.25-4096 nM
[23] = as §1, with “early” for “late”, “2.24%)” for “12.07%)”; type: functional; settings: time 19 day
[24] = tested on: Lewis lung carcinoma; assay: Antitumor immunity against mouse Lewis lung carcinoma cell line overexpressing PD-L1 co-cultured with concanavalin A stimulated BALB/c mouse spleen T cell assessed as increase in T cell infiltration into tumor matrix at 80 nM incubated for 48 to 72 hrs by fluorescence microscopy; type: functional, cell-based; settings: time 48-72 hrs
[25] = tested on: CT26; assay: Cytotoxicity against mouse CT26 cells overexpressing PD-L1 assessed as cell growth inhibition at 0.25 to 4096 nM incubated for 48 hrs by MTT assay; type: functional, cell-based; settings: dose 0.25-4096 nM
[26] = Metabolic stability in rat liver microsomes assessed as half life; type: ADME, Microsome
[27] = tested on: CT26; assay: Cytotoxicity against mouse CT26 cells assessed as cell growth inhibition at 0.25 to 4096 nM incubated for 48 hrs by MTT assay; type: functional, cell-based; settings: dose 0.25-4096 nM
[28] = tested on: Lewis lung carcinoma; assay: Antitumor immunity against mouse Lewis lung carcinoma cell line overexpressing PD-L1 co-cultured with concanavalin A stimulated BALB/c mouse spleen T cell assessed as increase in T cell infiltration into tumor matrix at 20 nM incubated for 48 to 72 hrs by fluorescence microscopy; type: functional, cell-based; settings: time 48-72 hrs
[29] = as §1, with “CD8” for “CD4”, “9%)” for “12.07%)”; type: functional; settings: time 19 day
[30] = as §1, with “CD8” for “CD4”, “necrotic” for “late apoptotic”, “5.17%)” for “12.07%)”; type: functional; settings: time 19 day
[31] = as §1, with “viable” for “late apoptotic”, “83.97%)” for “12.07%)”; type: functional; settings: time 19 day
[32] = as §1, with “CD8” for “CD4”, “early” for “late”, “1.32%)” for “12.07%)”; type: functional; settings: time 19 day
[33] = as §1, with “CD8” for “CD4”, “viable” for “late apoptotic”, “84.51%)” for “12.07%)”; type: functional; settings: time 19 day
[34] = tested on: Lewis lung carcinoma; assay: Cytotoxicity against mouse Lewis lung carcinoma cell line overexpressing PD-L1 assessed as cell growth inhibition at 0.25 to 4096 nM incubated for 48 hrs by MTT assay; type: functional, cell-based; settings: dose 0.25-4096 nM
[35] = Toxicity in C57 mouse implanted with mouse Lewis lung carcinoma cell line overexpressing PD-L1 assessed as reduction in body weight at 20 mg/kg,ip administrated once every three days for 19 days; type: organism-based; settings: in vivo, 456 h, time 19 day
[36] = Antitumor activity against mouse Lewis lung carcinoma cell line overexpressing PD-L1 implanted in C57 mouse model assessed as increase in CD8 positive IFN-gamma positive T cells in tumor at 20 mg/kg,ip administrated once every three days for 19 days by flow cytometry analysis (Rvb =20.66%); type: functional; settings: time 19 day

Programmed cell death protein 1/Programmed cell death 1 ligand 1, sequence (Q15116 whole entry): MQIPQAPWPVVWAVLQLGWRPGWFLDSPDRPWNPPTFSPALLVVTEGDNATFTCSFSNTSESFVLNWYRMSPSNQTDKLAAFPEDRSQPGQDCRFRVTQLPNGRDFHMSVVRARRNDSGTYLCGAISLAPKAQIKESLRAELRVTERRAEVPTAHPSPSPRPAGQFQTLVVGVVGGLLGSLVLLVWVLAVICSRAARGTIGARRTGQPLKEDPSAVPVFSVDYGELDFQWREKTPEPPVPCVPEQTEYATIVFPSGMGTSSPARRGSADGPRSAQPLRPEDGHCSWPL
Programmed cell death protein 1/Programmed cell death 1 ligand 1, sequence (Q9NZQ7 whole entry): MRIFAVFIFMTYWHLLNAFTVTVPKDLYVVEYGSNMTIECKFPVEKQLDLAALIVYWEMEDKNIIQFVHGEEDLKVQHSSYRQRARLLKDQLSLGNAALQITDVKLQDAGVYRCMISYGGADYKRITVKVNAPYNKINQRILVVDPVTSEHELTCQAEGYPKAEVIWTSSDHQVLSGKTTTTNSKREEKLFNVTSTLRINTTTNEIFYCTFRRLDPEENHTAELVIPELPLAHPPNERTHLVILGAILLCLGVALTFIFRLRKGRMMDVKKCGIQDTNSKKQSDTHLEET

## CC(=O)NCCNCc1cnc2c(N3CCc4c(-c5ccccc5)cccc43)ncnc2c1
[1]
  Activity: 45.07%
[2]
  half-life: 1.85 h
[3]
  Activity: 51.57%
[4]
  Activity: 22.16%
[5]
  Activity: Active
[6]
  IC50: 0.0039 µM
[7]
  Activity: 43.99%
[8]
  Activity: 18.56%
[9]
  Activity: 55.7%
[10]
  Activity: Active

## CC(C)(CO)NCc1cnc2c(N3CCc4c(-c5ccccc5)cccc43)nccc2c1
[6]
  IC50: 0.0444 µM

## NS(=O)(=O)NCCNCc1cnc2c(N3CCc4c(-c5ccc6c(c5)OCCO6)cccc43)ncnc2c1
[6]
  IC50: 0.0315 µM

## O=C(c1ncc(CNC2CCOCC2)s1)N1CCc2c(-c3ccc4c(c3)OCCO4)cccc21
[2]
  half-life: 0.373 h
[3]
  Activity: 59.1%
[5]
  Activity: Active
[6]
  IC50: 0.0189 µM
[9]
  Activity: 60.49%
[10]
  Activity: Active

## O=C(O)[C@@H]1CCN(Cc2cnc3c(N4CCc5c(-c6ccccc6)cccc54)nccc3c2)C1
[6]
  IC50: 0.0679 µM

## O[C@H]1CCN(Cc2cnc3c(N4CCc5c(-c6ccccc6)cccc54)ncnc3c2)C1
[6]
  IC50: 0.0174 µM

## c1ccc(-c2cccc3c2CCN3c2ncnc3cc(CNC4CCOCC4)ccc23)cc1
[6]
  IC50: 0.108 µM

## COCCNCc1cnc2c(N3CCc4c(-c5ccccc5)cccc43)ncnc2c1
[6]
  IC50: 0.0234 µM

## OCCNCc1cnc2c(N3CCc4c(-c5ccccc5)cccc43)ncnc2c1
[2]
  half-life: 3.47 h
[3]
  Activity: 59.22%
[5]
  Activity: Active
[6]
  IC50: 0.0068 µM
[9]
  Activity: 60.06%
[10]
  Activity: Active

## OC[C@@H]1CCN(Cc2cnc3c(N4CCc5c(-c6ccccc6)cccc54)ncnc3c2)C1
[6]
  IC50: 0.016 µM

## c1ccc(-c2cccc3c2CCN3c2nccc3cc(CNC4CCOCC4)cnc23)cc1
[6]
  IC50: 0.128 µM

## O=C(O)[C@H]1CCN(Cc2cnc3c(N4CCc5c(-c6ccccc6)cccc54)ncnc3c2)C1
[3]
  Activity: 54.44%
[5]
  Activity: Active
[6]
  IC50: 0.0081 µM
[9]
  Activity: 52.78%
[10]
  Activity: Active

## O[C@@H]1CCN(Cc2cnc3c(N4CCc5c(-c6ccccc6)cccc54)ncnc3c2)C1
[6]
  IC50: 0.0132 µM

## O=C(O)[C@H]1CCCCN1Cc1cnc2c(N3CCc4c(-c5ccccc5)cccc43)ncnc2c1
[6]
  IC50: 0.0621 µM

## O=C(O)[C@H]1CCCN1Cc1cnc2c(N3CCc4c(-c5ccccc5)cccc43)ncnc2c1
[6]
  IC50: 0.0227 µM

## CC(C)(CO)NCc1cnc2c(N3CCc4c(-c5ccccc5)cccc43)ncnc2c1
[1]
  Activity: 61.21%
[11]
  Activity: Non-Toxic
[2]
  half-life: 3.34 h
[12]
  Activity: Non-Toxic
[3]
  Activity: 54.61%
[4]
  Activity: 26.32%
[13]
  Activity: Toxic
[5]
  Activity: Active
[14]
  Activity: Non-Toxic
[15]
  Activity: 21.13%
[16]
  Activity: Non-Toxic
[17]
  microsomal CLint: 6.9 µL/min/mg
[18]
  microsomal CLint: 8.8 µL/min/mg
[6]
  IC50: 0.0063 µM
[19]
  inhibition in vivo at 20 mg/kg: 61.9%
[20]
  Activity: 22.29%
[21]
  Activity: 0.78%
[22]
  Activity: inactive
[23]
  Activity: 3.13%
[24]
  Activity: Active
[7]
  Activity: 56.41%
[25]
  Activity: inactive
[26]
  half-life: 2.64 h
[27]
  Activity: inactive
[28]
  Activity: Active
[29]
  Activity: 17.77%
[30]
  Activity: 2.4%
[31]
  Activity: 73.8%
[32]
  Activity: 4.77%
[33]
  Activity: 75.06%
[8]
  Activity: 23.79%
[9]
  Activity: 62.69%
[34]
  Activity: inactive
[35]
  Activity: Toxic
[36]
  Activity: 31.1%
[10]
  Activity: Active
